pEC50, pIC50: −log10 of the molar value. Values after ≈ are worked out from the molar mass of the structure shown. One block for each molecule: values may come before it.
Key:
[1] = target: Cyclin-dependent kinase 2/cyclin E1 (Homo sapiens, UniProt P24941); assay: Inhibition of recombinant human full length N-terminal GST-tagged CDK2 (M1 to L298 residues)/CyclinE1 (M1 to A395 residues) expressed in baculovirus infected Sf9 insect cells using histone H1 as substrate by [gamma33P]ATP-based assay
K562 [2] = assay: Growth inhibition of human K562 cells after 72 hrs by Calcein AM dye based fluorescence assay; format: functional; details: K562, 72 h
MCF7 = assay: Growth inhibition of human MCF7 cells after 72 hrs by Calcein AM dye based fluorescence assay; format: functional; details: MCF7, 72 h
Nicotiana tabacum [3] = assay: Toxicity in Nicotiana tabacum; format: organism-based
Nicotiana tabacum [4] = assay: Anticytokinin activity against Nicotiana tabacum; format: functional, organism-based
Semliki Forest virus [5] = assay: Antiviral activity against Semliki forest virus infected in Swiss Webster mouse assessed as mouse survival at 10 mg/kg, ip measured after 18 to 24 hrs; format: functional
Semliki Forest virus [6] = assay: Antiviral activity against Semliki forest virus infected in Swiss Webster mouse assessed as mean survival time at 100 mg/kg, ip; format: functional
Semliki Forest virus [7] = assay: Antiviral activity against Semliki forest virus infected in Swiss Webster mouse assessed as mouse survival at 100 mg/kg, ip measured after 18 to 24 hrs; format: functional
Semliki Forest virus [8] = assay: Antiviral activity against Semliki forest virus infected in Swiss Webster mouse assessed as mean survival time at 10 mg/kg, ip; format: functional
Semliki Forest virus [9] = assay: Antiviral activity against Semliki forest virus infected in Swiss Webster mouse assessed as mean survival time at 50 mg/kg, ip; format: functional
Semliki Forest virus [10] = assay: Antiviral activity against Semliki forest virus infected in Swiss Webster mouse assessed as mouse survival at 200 mg/kg, ip measured after 18 to 24 hrs; format: functional
Semliki Forest virus [11] = assay: Antiviral activity against Semliki forest virus infected in Swiss Webster mouse assessed as mouse survival at 50 mg/kg, ip measured after 18 to 24 hrs; format: functional
Semliki Forest virus [12] = assay: Antiviral activity against Semliki forest virus infected in Swiss Webster mouse assessed as mean survival time at 30 mg/kg, ip; format: functional
Semliki Forest virus [13] = assay: Antiviral activity against Semliki forest virus infected in Swiss Webster mouse assessed as mean survival time at 200 mg/kg, ip; format: functional
Semliki Forest virus [14] = assay: Antiviral activity against Semliki forest virus infected in Swiss Webster mouse assessed as mouse survival at 30 mg/kg, ip measured after 18 to 24 hrs; format: functional
Candida albicans [15] = assay: Antimicrobial activity against Candida albicans ATCC 10231 by two-fold serial dilution assay; format: functional
Candida albicans [16] = assay: Fungicidal activity against Candida albicans ATCC 10231 by two-fold serial dilution assay; format: functional
[17] = target: Cyclin-dependent kinase 4/cyclin D1 (Homo sapiens, UniProt P11802); assay: Inhibition of recombinant human N-terminal GST-tagged CDK4 (S4 to E303 residues)/CyclinD1 (Q4 to I295 residues) expressed in Sf9 insect cells
CDK7/Cyclin H/MNAT1 = CDK7/Cyclin H/MNAT1 (Homo sapiens, UniProt P50613); assay: Inhibition of recombinant human full length N-terminal GST/His6-tagged CDK7 (M1 to F346 residues)/N-terminal His6-tagged CyclinH (M1 to L323 residues)/N-terminal His6-tagged MAT1 (M1 to S306 residues) expressed in Sf9 insect cells
Nicotiana tabacum [18] = assay: Growth inhibition of cytokinin-requiring tobacco cells; format: functional; details: for TGI: read-out: GI100
Nicotiana tabacum [19] = assay: Growth inhibition of cytokinin-autonomous tobacco cells; format: functional; details: for TGI: read-out: GI100
CDK9/cyclin T1 = CDK9/cyclin T1 (Homo sapiens, UniProt P50750); assay: Inhibition of recombinant human full length N-terminal GST/His6-tagged CDK9 (M1 to F372 residues)/N-terminal His6-tagged CyclinT1 (M1 to K726 residues) expressed in Sf9 insect cells
CDK6/cyclin D1 = CDK6/cyclin D1 (Homo sapiens, UniProt Q00534); assay: Inhibition of recombinant human full length N-terminal GST-tagged CDK6 (M1 to A326 residues)/CyclinD1 (Q4 to I295 residues) expressed in Sf9 insect cells
K562 [20] = assay: Antiproliferative activity against human K562 cells; format: functional, cell-based
Human alphaherpesvirus 1 = assay: Antiviral activity against HSV1 MP infected in African green monkey Vero cells assessed as inhibition of plaque formation after 48 hrs; format: functional; details: Human alphaherpesvirus 1, MP, read-out: ED50 (the source's name)
[21] = target: Cyclin-dependent kinase 1/cyclin B1 (Homo sapiens, UniProt P06493); assay: Inhibition of CDK1/CyclinB (unknown origin); format: protein-complex assay
Escherichia coli = assay: Bactericidal activity against Escherichia coli NCTC 10418 by two-fold serial dilution assay; format: functional
Pseudomonas aeruginosa [22] = assay: Antimicrobial activity against Pseudomonas aeruginosa ATCC 9027 by two-fold serial dilution assay; format: functional
Staphylococcus aureus = assay: Bactericidal activity against Staphylococcus aureus ATCC 6538 by two-fold serial dilution assay; format: functional
Pseudomonas aeruginosa [23] = assay: Bactericidal activity against Pseudomonas aeruginosa ATCC 9027 by two-fold serial dilution assay; format: functional

Chain of CDK7/Cyclin H/MNAT1 (P51946 whole entry, the tested form may be a part): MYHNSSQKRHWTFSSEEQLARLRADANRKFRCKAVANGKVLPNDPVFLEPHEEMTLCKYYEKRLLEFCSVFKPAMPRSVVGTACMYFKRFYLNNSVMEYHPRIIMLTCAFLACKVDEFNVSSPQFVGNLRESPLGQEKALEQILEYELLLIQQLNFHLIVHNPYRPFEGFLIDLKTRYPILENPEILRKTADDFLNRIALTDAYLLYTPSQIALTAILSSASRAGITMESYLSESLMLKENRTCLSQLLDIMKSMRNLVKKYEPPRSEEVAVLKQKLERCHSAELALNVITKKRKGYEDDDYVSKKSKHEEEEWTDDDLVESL
Chain of CDK7/Cyclin H/MNAT1 (P50613 whole entry, the tested form may be a part): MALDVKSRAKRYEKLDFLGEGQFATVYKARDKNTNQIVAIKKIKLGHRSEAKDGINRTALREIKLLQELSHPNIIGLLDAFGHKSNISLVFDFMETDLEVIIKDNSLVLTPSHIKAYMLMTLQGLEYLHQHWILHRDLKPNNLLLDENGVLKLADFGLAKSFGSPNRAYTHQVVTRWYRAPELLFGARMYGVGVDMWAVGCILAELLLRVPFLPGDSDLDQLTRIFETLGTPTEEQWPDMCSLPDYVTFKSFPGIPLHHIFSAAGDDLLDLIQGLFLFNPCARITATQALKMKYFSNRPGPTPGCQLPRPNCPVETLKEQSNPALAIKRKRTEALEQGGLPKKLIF
Chain of CDK7/Cyclin H/MNAT1 (P51948 whole entry, further chain, the tested form may be a part): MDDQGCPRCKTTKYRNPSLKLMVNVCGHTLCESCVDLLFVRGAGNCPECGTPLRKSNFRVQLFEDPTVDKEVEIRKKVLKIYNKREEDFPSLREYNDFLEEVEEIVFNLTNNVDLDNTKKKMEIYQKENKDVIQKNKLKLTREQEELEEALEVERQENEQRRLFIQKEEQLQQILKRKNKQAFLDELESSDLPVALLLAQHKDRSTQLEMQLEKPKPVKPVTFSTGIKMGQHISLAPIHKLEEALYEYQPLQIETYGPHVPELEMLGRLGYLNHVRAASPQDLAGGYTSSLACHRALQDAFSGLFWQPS
Chain of Cyclin-dependent kinase 4/cyclin D1 (P11802 whole entry, the tested form may be a part): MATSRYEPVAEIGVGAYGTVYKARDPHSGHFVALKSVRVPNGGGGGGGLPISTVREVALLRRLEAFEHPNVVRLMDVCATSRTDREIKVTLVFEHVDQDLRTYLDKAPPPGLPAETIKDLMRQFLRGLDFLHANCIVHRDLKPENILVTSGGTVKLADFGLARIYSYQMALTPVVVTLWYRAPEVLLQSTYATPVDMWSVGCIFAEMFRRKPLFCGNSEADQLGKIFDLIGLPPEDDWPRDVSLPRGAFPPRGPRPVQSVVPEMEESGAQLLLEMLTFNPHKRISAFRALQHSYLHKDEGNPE
Chain of Cyclin-dependent kinase 4/cyclin D1 (P24385 whole entry, further chain, the tested form may be a part): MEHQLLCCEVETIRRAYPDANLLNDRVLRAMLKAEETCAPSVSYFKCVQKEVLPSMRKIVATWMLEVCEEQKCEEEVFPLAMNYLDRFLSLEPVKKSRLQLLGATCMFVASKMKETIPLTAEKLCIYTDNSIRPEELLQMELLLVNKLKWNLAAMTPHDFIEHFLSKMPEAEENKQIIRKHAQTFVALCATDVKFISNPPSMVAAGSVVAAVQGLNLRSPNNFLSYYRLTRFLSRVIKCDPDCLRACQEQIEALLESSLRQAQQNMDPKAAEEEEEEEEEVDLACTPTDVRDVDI
Chain of CDK6/cyclin D1 (P24385 whole entry, the tested form may be a part): as the sequence (P24385 whole entry, further chain, the tested form may be a part) above
Chain of CDK6/cyclin D1 (Q00534 whole entry, the tested form may be a part): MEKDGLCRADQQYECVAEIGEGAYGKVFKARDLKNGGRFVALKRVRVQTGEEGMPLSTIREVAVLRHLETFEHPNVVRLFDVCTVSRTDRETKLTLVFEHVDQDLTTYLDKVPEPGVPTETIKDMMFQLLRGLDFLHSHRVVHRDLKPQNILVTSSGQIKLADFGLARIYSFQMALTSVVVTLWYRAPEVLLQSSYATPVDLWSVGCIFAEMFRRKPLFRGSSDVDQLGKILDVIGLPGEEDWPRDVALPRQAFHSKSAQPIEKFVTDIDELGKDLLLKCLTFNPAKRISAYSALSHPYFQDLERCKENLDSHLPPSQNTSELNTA
Chain of CDK9/cyclin T1 (O60563 whole entry, the tested form may be a part): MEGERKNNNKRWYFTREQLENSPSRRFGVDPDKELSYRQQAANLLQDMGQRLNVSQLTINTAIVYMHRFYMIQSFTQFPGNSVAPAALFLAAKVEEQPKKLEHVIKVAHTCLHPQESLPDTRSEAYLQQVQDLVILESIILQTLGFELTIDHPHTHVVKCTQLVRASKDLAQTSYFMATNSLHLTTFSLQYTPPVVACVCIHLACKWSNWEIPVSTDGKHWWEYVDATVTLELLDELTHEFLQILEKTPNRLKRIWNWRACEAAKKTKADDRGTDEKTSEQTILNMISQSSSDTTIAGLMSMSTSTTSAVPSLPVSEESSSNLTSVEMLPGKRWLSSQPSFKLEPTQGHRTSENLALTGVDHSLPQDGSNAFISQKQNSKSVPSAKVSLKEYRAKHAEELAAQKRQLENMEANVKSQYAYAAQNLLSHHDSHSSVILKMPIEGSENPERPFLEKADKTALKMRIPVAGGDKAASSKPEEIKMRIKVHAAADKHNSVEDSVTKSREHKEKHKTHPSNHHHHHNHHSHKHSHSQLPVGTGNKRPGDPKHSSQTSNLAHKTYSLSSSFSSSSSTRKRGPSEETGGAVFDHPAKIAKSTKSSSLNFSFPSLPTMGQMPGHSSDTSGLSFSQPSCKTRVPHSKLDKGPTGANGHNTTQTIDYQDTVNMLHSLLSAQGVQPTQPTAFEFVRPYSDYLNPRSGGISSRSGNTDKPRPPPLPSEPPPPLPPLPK
Chain of CDK9/cyclin T1 (P50750 whole entry, the tested form may be a part): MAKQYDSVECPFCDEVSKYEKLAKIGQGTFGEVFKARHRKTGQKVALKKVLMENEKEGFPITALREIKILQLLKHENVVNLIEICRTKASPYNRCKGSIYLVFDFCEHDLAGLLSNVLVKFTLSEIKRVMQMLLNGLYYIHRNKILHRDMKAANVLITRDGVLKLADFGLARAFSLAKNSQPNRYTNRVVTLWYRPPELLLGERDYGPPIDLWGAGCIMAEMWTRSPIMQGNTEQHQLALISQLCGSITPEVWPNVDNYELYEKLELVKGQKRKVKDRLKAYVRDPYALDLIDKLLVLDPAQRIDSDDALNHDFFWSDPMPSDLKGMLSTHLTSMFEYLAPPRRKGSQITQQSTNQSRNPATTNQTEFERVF
Chain of Cyclin-dependent kinase 1/cyclin B1 (P06493 whole entry): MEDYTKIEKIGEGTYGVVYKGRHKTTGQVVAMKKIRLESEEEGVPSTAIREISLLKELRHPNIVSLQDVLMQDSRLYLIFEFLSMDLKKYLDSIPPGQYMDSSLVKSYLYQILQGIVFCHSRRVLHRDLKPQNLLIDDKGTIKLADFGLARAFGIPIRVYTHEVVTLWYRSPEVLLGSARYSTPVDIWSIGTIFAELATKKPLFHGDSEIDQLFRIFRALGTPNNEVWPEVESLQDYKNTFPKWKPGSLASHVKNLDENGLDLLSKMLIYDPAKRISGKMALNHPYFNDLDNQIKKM
Chain of Cyclin-dependent kinase 1/cyclin B1 (P14635 whole entry, further chain): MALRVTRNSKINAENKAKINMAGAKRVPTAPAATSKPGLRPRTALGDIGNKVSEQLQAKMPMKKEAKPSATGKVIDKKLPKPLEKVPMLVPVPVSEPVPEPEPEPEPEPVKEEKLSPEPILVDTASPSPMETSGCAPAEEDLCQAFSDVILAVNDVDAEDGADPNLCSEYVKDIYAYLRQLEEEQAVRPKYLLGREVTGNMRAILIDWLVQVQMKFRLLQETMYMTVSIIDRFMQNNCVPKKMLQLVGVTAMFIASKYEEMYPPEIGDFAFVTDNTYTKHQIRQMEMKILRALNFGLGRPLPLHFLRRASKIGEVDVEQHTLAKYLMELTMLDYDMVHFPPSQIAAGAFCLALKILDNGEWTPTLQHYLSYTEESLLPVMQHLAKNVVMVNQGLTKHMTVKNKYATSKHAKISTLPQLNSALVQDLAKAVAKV

SMILES: Cn1nc([C@@H]2O[C@H](CO)[C@@H](O)[C@H]2O)c2nc(N)[nH]c(=O)c21
survival at 10 mg/kg (Semliki Forest virus [5]): 8% | MST (Semliki Forest virus [6]): 8 days | survival at 100 mg/kg (Semliki Forest virus [7]): 67% | MST (Semliki Forest virus [8]): 9.6 days | MST (Semliki Forest virus [9]): 6 days | survival at 200 mg/kg (Semliki Forest virus [10]): 58% | survival at 50 mg/kg (Semliki Forest virus [11]): 67% | MST (Semliki Forest virus [12]): 9.2 days | MST (Semliki Forest virus [13]): 7 days | survival at 30 mg/kg (Semliki Forest virus [14]): 50%

SMILES: Clc1ccccc1C(c1ccccc1)(c1ccccc1)n1ccnc1 [CLOTRIMAZOLE]
MIC (Candida albicans [15]): 7.81 µg/mL (≈ 22.6 µM) | MFC (Candida albicans [16]): 15.6 µg/mL (≈ 45.3 µM)

SMILES: CCCCCCNc1ncnc2c(C)n[nH]c12
pIC50 (Nicotiana tabacum [3]): 6.30 | pIC50 (Nicotiana tabacum [4]): 7.52

SMILES: Cc1n[nH]c2c(NCc3ccccc3)ncnc12
GI50 (Nicotiana tabacum [18]): 40 nM | TGI (Nicotiana tabacum [18]): 150 nM | GI50 (Nicotiana tabacum [19]): 30 nM | TGI (Nicotiana tabacum [19]): 100 nM

SMILES: Nc1nc(=O)c2sc(=O)n([C@@H]3O[C@H](CO)[C@@H](O)[C@H]3O)c2[nH]1 [ISATORIBINE]
MST (Semliki Forest virus [6]): 8 days | survival at 100 mg/kg (Semliki Forest virus [7]): 92%

SMILES: O=c1[nH]cnc2c(-c3ccc(Br)cc3)n[nH]c12
MIC (Candida albicans [15]): 250 µg/mL (≈ 859 µM) | MFC (Candida albicans [16]): 250 µg/mL (≈ 859 µM)

SMILES: O=c1[nH]c(=O)n([C@H]2C[C@H](O)[C@@H](CO)O2)cc1I [IDOXURIDINE]
pEC50 (Human alphaherpesvirus 1): 5.92

SMILES: CCCCn1cnc2c(C)nn([C@@H]3O[C@H](CO)[C@@H](O)[C@H]3O)c2c1=O
pEC50 (Human alphaherpesvirus 1): 3.82

SMILES: CC1(C)S[C@@H]2[C@H](NC(=O)[C@H](N)c3ccccc3)C(=O)N2[C@H]1C(=O)O [AMPICILLIN]
MBC (Escherichia coli): 31.2 µg/mL (≈ 89.4 µM) | MIC (Pseudomonas aeruginosa [22]): 250 µg/mL (≈ 715 µM) | MBC (Staphylococcus aureus): 15.6 µg/mL (≈ 44.7 µM) | MBC (Pseudomonas aeruginosa [23]): 500 µg/mL (≈ 1430 µM)

SMILES: COc1ccc(Cn2cnc3c(C)nn([C@@H]4O[C@H](CO)[C@@H](O)[C@H]4O)c3c2=O)cc1
pEC50 (Human alphaherpesvirus 1): 4.31

SMILES: Cc1nn([C@@H]2O[C@H](CO)[C@@H](O)[C@H]2O)c2c(=O)n(-c3ccc(Cl)cc3)cnc12
pEC50 (Human alphaherpesvirus 1): 4.30

More lines, main results first:

pIC50 [1]: 7.82 | GI50 (K562 [2]): 22300 nM | GI50 (MCF7): 10900 nM
SMILES: CC[C@@H](CO)Nc1nc(NCc2ccccc2N)c2[nH]nc(C(C)C)c2n1

pIC50 (Nicotiana tabacum [4]): 7.00
SMILES: Cc1n[nH]c2c(NCCC(C)C)ncnc12
pIC50 (Nicotiana tabacum [3]): 6.14

pIC50 [1]: 7.78 | GI50 (K562 [2]): 15500 nM | GI50 (MCF7): 4400 nM
SMILES: CC(C)c1n[nH]c2c(NCc3ccccc3N)nc(NC[C@@H](C)O)nc12

pIC50 [17]: 5.18 | pIC50 (CDK7/Cyclin H/MNAT1): < 4.00
SMILES: CC(C)c1n[nH]c2c(NCc3ccccc3)nc(NC3CCC(N)CC3)nc12 (stereo not given)

pIC50 [1]: 7.98 | GI50 (K562 [2]): 9200 nM | GI50 (MCF7): 2800 nM
SMILES: CC[C@H](CO)Nc1nc(NCc2ccccc2N)c2[nH]nc(C(C)C)c2n1

pIC50 (CDK9/cyclin T1): < 6.00 | pIC50 (CDK6/cyclin D1): < 4.00 | pIC50 (CDK7/Cyclin H/MNAT1): < 4.00
SMILES: CC(C)c1n[nH]c2c(NCc3ccccc3)nc(NC3CCCCC3N)nc12 (stereo not given)

pIC50 (K562 [20]): 3.79
SMILES: Cn1cnc2c(NCc3ccccc3)nc(NCCO)nc21 [OLOMOUCINE]

pIC50 [21]: 6.36 | pIC50 (K562 [20]): 4.27
SMILES: CC(C)c1n[nH]c2c(NCc3ccccc3O)ncnc12

pIC50 (Nicotiana tabacum [4]): 7.52
SMILES: CCCCCNc1ncnc2c(C)n[nH]c12
pIC50 (Nicotiana tabacum [3]): 6.70 | GI50 (Nicotiana tabacum [18]): 20 nM | TGI (Nicotiana tabacum [18]): 50 nM | GI50 (Nicotiana tabacum [19]): 25 nM | TGI (Nicotiana tabacum [19]): 50 nM

From ChEMBL document CHEMBL4184194, “An appraisal on synthetic and pharmaceutical perspectives of pyrazolo[4,3-d]pyrimidine scaffold” (Bioorg Med Chem, 2018)
